Laboratory results from BindingDB's records for doi:10.7270/Q2B856KG (Vanderbilt Screening Center For Gpcrs, Ion Channels and …, 2010).

Target: Voltage-dependent T-type calcium channel subunit alpha-1H (Homo sapiens, UniProt O95180)
Test: PubChem AID 489005

Chain of Voltage-dependent T-type calcium channel subunit alpha-1H (O95180 whole entry): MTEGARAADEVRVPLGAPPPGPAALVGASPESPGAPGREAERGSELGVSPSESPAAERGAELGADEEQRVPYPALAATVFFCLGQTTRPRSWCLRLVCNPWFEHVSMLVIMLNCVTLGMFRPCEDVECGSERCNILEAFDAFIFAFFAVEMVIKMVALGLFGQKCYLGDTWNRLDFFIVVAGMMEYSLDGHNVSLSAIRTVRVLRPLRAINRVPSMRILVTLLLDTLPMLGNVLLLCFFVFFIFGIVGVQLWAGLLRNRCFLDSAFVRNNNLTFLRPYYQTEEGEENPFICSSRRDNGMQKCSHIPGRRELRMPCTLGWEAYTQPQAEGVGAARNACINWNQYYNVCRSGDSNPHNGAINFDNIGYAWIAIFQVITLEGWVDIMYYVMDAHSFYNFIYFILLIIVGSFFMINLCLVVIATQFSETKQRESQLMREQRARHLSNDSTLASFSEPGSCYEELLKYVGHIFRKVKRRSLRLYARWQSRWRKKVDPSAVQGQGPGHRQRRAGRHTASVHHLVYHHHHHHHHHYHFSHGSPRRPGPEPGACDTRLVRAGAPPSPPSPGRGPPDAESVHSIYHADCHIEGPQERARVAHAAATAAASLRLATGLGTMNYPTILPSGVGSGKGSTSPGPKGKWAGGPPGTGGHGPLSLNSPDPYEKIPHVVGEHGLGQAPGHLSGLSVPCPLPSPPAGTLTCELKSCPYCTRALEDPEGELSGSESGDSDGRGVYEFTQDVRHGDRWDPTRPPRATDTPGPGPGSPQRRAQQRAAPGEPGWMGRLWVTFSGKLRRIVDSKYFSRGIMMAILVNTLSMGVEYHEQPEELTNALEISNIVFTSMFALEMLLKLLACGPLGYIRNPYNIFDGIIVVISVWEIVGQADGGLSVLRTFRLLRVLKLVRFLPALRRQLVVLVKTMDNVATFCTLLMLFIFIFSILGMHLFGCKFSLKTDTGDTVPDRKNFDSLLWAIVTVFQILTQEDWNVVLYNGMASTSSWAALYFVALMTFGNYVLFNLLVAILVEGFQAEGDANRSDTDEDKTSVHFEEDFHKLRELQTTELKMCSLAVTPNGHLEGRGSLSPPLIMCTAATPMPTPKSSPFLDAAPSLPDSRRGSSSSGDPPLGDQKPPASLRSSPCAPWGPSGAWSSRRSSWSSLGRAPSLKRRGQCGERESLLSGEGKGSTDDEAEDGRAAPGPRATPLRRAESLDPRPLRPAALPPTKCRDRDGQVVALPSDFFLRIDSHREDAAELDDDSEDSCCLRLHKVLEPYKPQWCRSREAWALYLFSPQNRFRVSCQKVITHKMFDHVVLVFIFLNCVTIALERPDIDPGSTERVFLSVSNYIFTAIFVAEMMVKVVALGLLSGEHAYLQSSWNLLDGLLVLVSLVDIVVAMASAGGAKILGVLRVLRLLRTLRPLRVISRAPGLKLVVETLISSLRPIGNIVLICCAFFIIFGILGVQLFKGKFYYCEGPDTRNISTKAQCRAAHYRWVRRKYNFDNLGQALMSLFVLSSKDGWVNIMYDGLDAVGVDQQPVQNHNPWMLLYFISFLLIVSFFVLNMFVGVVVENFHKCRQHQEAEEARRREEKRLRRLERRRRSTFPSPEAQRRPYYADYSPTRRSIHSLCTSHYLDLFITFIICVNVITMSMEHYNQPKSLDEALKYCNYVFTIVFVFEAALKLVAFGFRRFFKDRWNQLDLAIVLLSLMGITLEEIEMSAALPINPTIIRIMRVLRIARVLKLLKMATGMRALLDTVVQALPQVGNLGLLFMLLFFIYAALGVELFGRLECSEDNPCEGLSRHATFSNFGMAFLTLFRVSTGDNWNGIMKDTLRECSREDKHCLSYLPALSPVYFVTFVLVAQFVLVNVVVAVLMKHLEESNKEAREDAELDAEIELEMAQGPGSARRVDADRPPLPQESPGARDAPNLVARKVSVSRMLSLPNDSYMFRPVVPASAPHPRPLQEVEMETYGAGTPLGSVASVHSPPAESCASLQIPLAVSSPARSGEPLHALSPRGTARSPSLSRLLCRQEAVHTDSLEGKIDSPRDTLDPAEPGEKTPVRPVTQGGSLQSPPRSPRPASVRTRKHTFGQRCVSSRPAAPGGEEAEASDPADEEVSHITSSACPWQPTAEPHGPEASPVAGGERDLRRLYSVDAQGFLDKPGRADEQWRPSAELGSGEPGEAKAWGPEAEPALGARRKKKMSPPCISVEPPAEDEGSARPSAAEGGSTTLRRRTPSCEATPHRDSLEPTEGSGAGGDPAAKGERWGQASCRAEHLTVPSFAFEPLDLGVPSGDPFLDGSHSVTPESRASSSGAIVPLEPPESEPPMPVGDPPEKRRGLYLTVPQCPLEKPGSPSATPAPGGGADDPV

Row | SMILES | EC50 [µM]
1 | CC(CC(=O)c1ccncc1)=Nc1ccccc1O | 3.26
2 | COc1cccc(N2CCN(c3cc(O)n(-c4ccc(Cl)c(Cl)c4)c3O)CC2)c1 [1-(3,4-dichlorophenyl)-3-[4-(3-methoxyphenyl)-1-piperazinyl]pyrrolidine-2,5-dione] | 6.84
3 | O=NC1c2cc(S(=O)(=O)N3CCCCC3)ccc2-c2ccc(S(=O)(=O)N3CCCCC3)cc21 [2,7-Bis-(piperidine-1-sulfonyl)-fluoren-9-one oxime] | 12.3
4 | COc1ccc(C(C(=O)C(O)c2c[nH]c3ccccc23)N2CCN(c3ccccc3)CC2)cc1 (stereo unspecified) [MLS000053208] | 8.16
5 | CCCCCCC1=Cc2c/c(=C3/NN=C(c4ccccc4)O3)c(=O)oc2=CC1=O [MLS000068623] | 3
6 | CC(C)CC(C(=O)C(C#N)c1nc2ccccc2[nH]1)N1C(=O)c2ccccc2C1=O (stereo unspecified) [MLS000109709] | 14.8
7 | O=NC(c1ccc(Cl)cc1Cl)c1ncc(C(F)(F)F)cc1Cl (stereo unspecified) [MLS000540015] | 2.11
8 | CCN(CC)S(=O)(=O)c1ccc2c(c1)C(N=O)c1cc(S(=O)(=O)N(CC)CC)ccc1-2 [N2,N2,N7,N7-tetraethyl-9-hydroxyimino-fluorene-2,7-disulfonamide] | 1.6
9 | Cc1ccc(-c2csc(NC(=O)c3cccc(-n4c(O)ccc4O)c3)n2)o1 [SMR000018545] | 3.78
10 | CC1CCN(S(=O)(=O)c2ccc(N=NC(C#N)C#N)cc2)CC1 [SMR000162322] | 1.52
11 | Oc1cc(SCCc2nc3ccccc3[nH]2)c(O)n1-c1ccc(Cl)cc1 [SMR000199589] | 613
